For 22 molecules, GI50 results are on record in patent US7842802B2, “Vinorelbine derivatives” (priority 2003, dated 2010).

Experiment [1] has as its system MCF-7 human breast carcinoma line. Nature of the experiment: MCF-7 GI50 determination (crystal violet). The class given is cell-based. The conditions noted are these: Homo sapiens, MCF7, 96 h, read-out: MCF-7 Cells GI50. The procedure: Growth inhibition (GI50) values were measured on the human breast carcinoma line, MCF-7. MCF-7 cells were plated at 2×10^4 cells/well in 96 well plates and grown for 24 hours in drug free media. On day 2, test compounds were added to the plates at 10-fold dilutions. Four days later, cells were fixed by the addition of glutaraldehyde to 0.75%. After 30 min, the fixed cells were extensively rinsed with distilled water and dried at room temperature for one hour. The cells were then stained with a 0.2% crystal violet solution for one hour at room temperature. Unbound stain was removed by ten rinses with tap water and plates were allowed to air dry for 30 min. The crystal violet was then solubilized by the addition of 10% acetic acid for 15 min and quantified by measuring absorbance at 570 nm on a Molecular Devices microplate reader. Growth inhibition was calculated according to the following equation: GI=[…], where the optical density (OD) of the test well after 4 days of treatment was T, the OD of the wells in the control plate on day 0 was T0. Plots of percent growth inhibition versus inhibitor concentration were used to determine the GI50.

In experiment [2] the test system is HeLa S-3 human cervical carcinoma cell line. The experiment is described as follows: HeLa GI50 determination (SRB). The class given is cell-based. The conditions noted are these: Homo sapiens, HeLa S3, 48 h, read-out: HeLa Cells GI50. The procedure: Growth inhibition (GI50) values were measured on the human cervical carcinoma cell line, HeLa S-3, which were selected for growth on plastic. The HeLa cell assay was based on the description of Skehan et al., J. Natl. Cancer Inst., 82:1107-12 (1990), which is hereby incorporated by reference in its entirety. HeLa cells were plated at 2×10^4 cells/well in 96 well plates. One day later, a control plate was fixed by the addition of TCA to 5%. After five rinses with tap water, the plate was air-dried and stored at 4° C. Test compounds were added to the remaining plates at 10-fold dilutions. Two days later, all plates were fixed as described above. Cells were then stained by the addition of 100 μL per well of 0.4% sulforhodamine B (SRB) in 1% acetic acid for 30 min at 4° C. Wells were then quickly rinsed 5× with 1% acetic acid and allowed to air dry. The SRB was then solubilized by the addition of 100 μL per well of unbuffered 10 mM Tris base. Dye was quantified by measuring absorbance at 490 nm on a Molecular Devices microplate reader. Growth inhibition was calculated according to the following equation: GI=100×(T−T0)/(C−T0), where the optical density (OD) of the test well after 2 days of treatment was T, the OD of the wells in the control plate on day 0 was T0 and C was the OD of untreated wells. Plots of percent growth inhibition versus inhibitor concentration were used to determine the GI50.

[3] abbreviates: MCF-7, 4 days of treatment, crystal violet.
The mark [4] stands for this setting: HeLa S-3, 2 days of treatment, SRB.

Like-named read-outs stand apart in the source and are kept apart here.

The GI50 is the concentration at which growth is held to half of that of the control. With `C=Cc1ccc2[nH]c3c(c2c1)CN1CC(CC)=C[C@@H](C1)C[C@]3(C(=O)OC)c1cc2c(cc1OC)N(C)[C@H]1[C@@](O)(C(=O)OC)[C@H](OC(C)=O)C3C(CC)=CCN4CC[C@]21[C@H]34` (some centres unmarked) [Example 3, 11′-vinylvinorelbine], the results for the GI50 in experiment [1] (setting [3]) and in experiment [2] (setting [4]) were 7 nM and 3 nM, respectively.

With `CCCC(=O)/C=C/c1ccc2[nH]c3c(c2c1)CN1CC(CC)=C[C@@H](C1)C[C@]3(C(=O)OC)c1cc2c(cc1OC)N(C)[C@H]1[C@@](O)(C(=O)OC)[C@H](OC(C)=O)C3C(CC)=CCN4CC[C@]21[C@H]34` (some centres unmarked) [Example 4, 11′-(3-oxohex-1-enyl) vinorelbine], the GI50 in experiment [1] (setting [3]) was determined as 300 nM; in experiment [2] (setting [4]) it was 400 nM.

In the case of `CCC1=C[C@H]2CN(C1)Cc1c([nH]c3ccc(/C=C/C(=O)OC(C)(C)C)cc13)[C@@](C(=O)OC)(c1cc3c(cc1OC)N(C)[C@H]1[C@@](O)(C(=O)OC)[C@H](OC(C)=O)C4C(CC)=CCN5CC[C@]31[C@H]45)C2` (some centres unmarked) [Example 5, 11′-(2-tert-butoxycarbonylvinyl) vinorelbine], the results for the GI50 in experiment [1] and in experiment [2] were 600 nM and 300 nM, respectively.

For the molecule `CCC1=C[C@H]2CN(C1)Cc1c([nH]c3ccc(/C=C/C(=O)O)cc13)[C@@](C(=O)OC)(c1cc3c(cc1OC)N(C)[C@H]1[C@@](O)(C(=O)OC)[C@H](OC(C)=O)C4C(CC)=CCN5CC[C@]31[C@H]45)C2` (some centres unmarked) [Example 6, 11′-(carboxyvinyl) vinorelbine], the GI50 was more than 1000 nM in experiment [1] (setting [3]) and 800 nM in experiment [2] (setting [4]).

Consider `CCC1=C[C@H]2CN(C1)Cc1c([nH]c3ccc(SCCC(=O)OC)cc13)[C@@](C(=O)OC)(c1cc3c(cc1OC)N(C)[C@H]1[C@@](O)(C(=O)OC)[C@H](OC(C)=O)C4C(CC)=CCN5CC[C@]31[C@H]45)C2` (some centres unmarked) [Example 7, 11′-(methoxycarbonylethylsulfanyl) vinorelbine], for which the results for the GI50 in experiment [1] (setting [3]) and in experiment [2] (setting [4]) were 400 nM and 200 nM, respectively.

As to `CCC1=C[C@H]2CN(C1)Cc1c([nH]c3ccc(S)cc13)[C@@](C(=O)OC)(c1cc3c(cc1OC)N(C)[C@H]1[C@@](O)(C(=O)OC)[C@H](OC(C)=O)C4C(CC)=CCN5CC[C@]31[C@H]45)C2` (some centres unmarked) [Example 8, 11′-thiovinorelbine], the 50% growth inhibitory concentration (GI50) came to 60 nM in experiment [1] (setting [3]) and 40 nM in experiment [2] (setting [4]).

`CCC1=C[C@H]2CN(C1)Cc1c([nH]c3ccc(SCC(=O)OC)cc13)[C@@](C(=O)OC)(c1cc3c(cc1OC)N(C)[C@H]1[C@@](O)(C(=O)OC)[C@H](OC(C)=O)C4C(CC)=CCN5CC[C@]31[C@H]45)C2` (some centres unmarked) [Example 9, 11′-(methoxycarbonylmethylsulfanyl) vinorelbine]: the concentration for 50% growth inhibition (GI50) was determined as 30 nM in experiment [1] (setting [3]) and 20 nM in experiment [2] (setting [4]).

Consider `CCC1=C[C@H]2CN(C1)Cc1c([nH]c3ccc(SC)cc13)[C@@](C(=O)OC)(c1cc3c(cc1OC)N(C)[C@H]1[C@@](O)(C(=O)OC)[C@H](OC(C)=O)C4C(CC)=CCN5CC[C@]31[C@H]45)C2` (some centres unmarked) [Example 10, 11′-(methylsulfanyl) vinorelbine], for which the GI50 in experiment [1] (setting [3]) turned out to be 1 nM; in experiment [2] (setting [4]), 0.3 nM.

Consider `CCSc1ccc2[nH]c3c(c2c1)CN1CC(CC)=C[C@@H](C1)C[C@]3(C(=O)OC)c1cc2c(cc1OC)N(C)[C@H]1[C@@](O)(C(=O)OC)[C@H](OC(C)=O)C3C(CC)=CCN4CC[C@]21[C@H]34` (some centres unmarked) [Example 11, 11′-(ethylsulfanyl) vinorelbine], for which the GI50 in experiment [1] (setting [3]) is 20 nM; in experiment [2] (setting [4]), 5 nM.

`CCC1=C[C@H]2CN(C1)Cc1c([nH]c3ccc(SCCCCO)cc13)[C@@](C(=O)OC)(c1cc3c(cc1OC)N(C)[C@H]1[C@@](O)(C(=O)OC)[C@H](OC(C)=O)C4C(CC)=CCN5CC[C@]31[C@H]45)C2` (some centres unmarked) [Example 12, 11′-(4-hydroxybutylsulfanyl)vinorelbine]: the values for the GI50 in experiment [1] (setting [3]) and in experiment [2] (setting [4]) were 40 nM and 20 nM, respectively.

As for `CCC1=C[C@H]2CN(C1)Cc1c([nH]c3ccc(SCCCO)cc13)[C@@](C(=O)OC)(c1cc3c(cc1OC)N(C)[C@H]1[C@@](O)(C(=O)OC)[C@H](OC(C)=O)C4C(CC)=CCN5CC[C@]31[C@H]45)C2` (some centres unmarked) [Example 13, 11′-(3-hydroxypropylsulfanyl)vinorelbine], the results for the 50% growth inhibitory concentration (GI50) in experiment [1] (setting [3]) and in experiment [2] (setting [4]) were 30 nM and 20 nM, respectively.

In the case of `CCC1=C[C@H]2CN(C1)Cc1c([nH]c3ccc(SCCO)cc13)[C@@](C(=O)OC)(c1cc3c(cc1OC)N(C)[C@H]1[C@@](O)(C(=O)OC)[C@H](OC(C)=O)C4C(CC)=CCN5CC[C@]31[C@H]45)C2` (some centres unmarked) [Example 14, 11′-(2-hydroxyethylsulfanyl)vinorelbine], the GI50 is 50 nM in experiment [1] (setting [3]) and 30 nM in experiment [2] (setting [4]).

For the molecule `CCC1=C[C@H]2CN(C1)Cc1c([nH]c3ccc(SCc4ccccc4F)cc13)[C@@](C(=O)OC)(c1cc3c(cc1OC)N(C)[C@H]1[C@@](O)(C(=O)OC)[C@H](OC(C)=O)C4C(CC)=CCN5CC[C@]31[C@H]45)C2` (some centres unmarked) [Example 15, 11′-(2-fluorobenzylsulfanyl)vinorelbine], the GI50 was found to be 400 nM in experiment [1] (setting [3]) and 200 nM in experiment [2] (setting [4]).

Turning to `CCC1=C[C@H]2CN(C1)Cc1c([nH]c3ccc(SCc4ccccc4Cl)cc13)[C@@](C(=O)OC)(c1cc3c(cc1OC)N(C)[C@H]1[C@@](O)(C(=O)OC)[C@H](OC(C)=O)C4C(CC)=CCN5CC[C@]31[C@H]45)C2` (some centres unmarked) [Example 16, 11′-(2-chlorobenzylsulfanyl)vinorelbine], the GI50 turned out to be 500 nM in experiment [1] (setting [3]) and 300 nM in experiment [2] (setting [4]).

Consider `CCC1=C[C@H]2CN(C1)Cc1c([nH]c3ccc(Sc4ccccc4)cc13)[C@@](C(=O)OC)(c1cc3c(cc1OC)N(C)[C@H]1[C@@](O)(C(=O)OC)[C@H](OC(C)=O)C4C(CC)=CCN5CC[C@]31[C@H]45)C2` (some centres unmarked) [Example 17, 11′-(phenysulfanyl) vinorelbine], for which the GI50 in experiment [1] (setting [3]) was 300 nM; in experiment [2] (setting [4]), 20 nM.

Consider `CCC1=C[C@H]2CN(C1)Cc1c([nH]c3ccc(Sc4cccc(O)c4)cc13)[C@@](C(=O)OC)(c1cc3c(cc1OC)N(C)[C@H]1[C@@](O)(C(=O)OC)[C@H](OC(C)=O)C4C(CC)=CCN5CC[C@]31[C@H]45)C2` (some centres unmarked) [Example 18, 11′-(3-hydroxyphenysulfanyl)vinorelbine], for which the GI50 was found to be 300 nM in experiment [1] (setting [3]) and 30 nM in experiment [2] (setting [4]).

Consider `CCC1=C[C@H]2CN(C1)Cc1c([nH]c3ccc([S+]([O-])CCO)cc13)[C@@](C(=O)OC)(c1cc3c(cc1OC)N(C)[C@H]1[C@@](O)(C(=O)OC)[C@H](OC(C)=O)C4C(CC)=CCN5CC[C@]31[C@H]45)C2` (some centres unmarked) [Example 19, 11′-(3-hydroxyethylsulfinyl)vinorelbine], for which the GI50 in experiment [1] (setting [3]) was more than 1000 nM; in experiment [2] (setting [4]), 300 nM.

As for `CCC1=C[C@H]2CN(C1)Cc1c([nH]c3ccc([S+]([O-])CCCO)cc13)[C@@](C(=O)OC)(c1cc3c(cc1OC)N(C)[C@H]1[C@@](O)(C(=O)OC)[C@H](OC(C)=O)C4C(CC)=CCN5CC[C@]31[C@H]45)C2` (some centres unmarked) [Example 20, 11′-(3-hydroxypropylsulfinyl)vinorelbine], the 50% growth inhibitory concentration (GI50) in experiment [1] (setting [3]) stood at 300 nM; in experiment [2] (setting [4]), 40 nM.

For `C#Cc1ccc2[nH]c3c(c2c1)CN1CC(CC)=C[C@@H](C1)C[C@]3(C(=O)OC)c1cc2c(cc1OC)N(C)[C@H]1[C@@](O)(C(=O)OC)[C@H](OC(C)=O)C3C(CC)=CCN4CC[C@]21[C@H]34` (some centres unmarked) [Example 21, 11′-ethynylvinorelbine], the GI50 in experiment [1] (setting [3]) was 5 nM; in experiment [2] (setting [4]), 0.4 nM.

In the case of `CCCCC#Cc1ccc2[nH]c3c(c2c1)CN1CC(CC)=C[C@@H](C1)C[C@]3(C(=O)OC)c1cc2c(cc1OC)N(C)[C@H]1[C@@](O)(C(=O)OC)[C@H](OC(C)=O)C3C(CC)=CCN4CC[C@]21[C@H]34` (some centres unmarked) [Example 22, 11′-hexynylvinorelbine], the GI50 was determined as 50 nM in experiment [1] (setting [3]) and 40 nM in experiment [2] (setting [4]).

For the molecule `CCC1=C[C@H]2CN(C1)Cc1c([nH]c3ccc(C#CCC(C)C)cc13)[C@@](C(=O)OC)(c1cc3c(cc1OC)N(C)[C@H]1[C@@](O)(C(=O)OC)[C@H](OC(C)=O)C4C(CC)=CCN5CC[C@]31[C@H]45)C2` (some centres unmarked) [Example 23, 11′-(4-methylpentynyl) vinorelbine], the GI50 in experiment [1] (setting [3]) and in experiment [2] (setting [4]) was 300 nM in each case.

`CCC1=C[C@H]2CN(C1)Cc1c([nH]c3ccc(C#CCOC)cc13)[C@@](C(=O)OC)(c1cc3c(cc1OC)N(C)[C@H]1[C@@](O)(C(=O)OC)[C@H](OC(C)=O)C4C(CC)=CCN5CC[C@]31[C@H]45)C2` (some centres unmarked) [Example 24, 11′-(3-methoxypropynyl)vinorelbine]: the GI50 in experiment [1] (setting [3]) was 300 nM; in experiment [2] (setting [4]) it was 100 nM.
